Assay results reported in US12358847B2, “Liquid formulations of urease inhibitors for fertilizers” (Soilgenic Technologies, LLC, priority 2012, dated 2025).

Experiments:
[1] = Accelerated chemical stability of NBPT solutions at 50 °C, HPLC; settings: 45 days at 50±1° C.
[2] = in vivo; cited from earlier work
[3] = in vivo; cited from earlier work; remark: listed apart in the source
[4] = Maximum Allowable Dosage Level per day (California Proposition 65); cited from earlier work
[5] = 25° C.; cited from earlier work
[6] = Dynamic viscosity of protic solvents with DMSO vs. NMP co-solvent (Brookfield viscometer); assay type: physicochemical; settings: 21° C.; in propylene glycol, glycerin, MIPA
Source text: Dynamic viscosity measurements were collected for propylene glycol, glycerin, and a representative alkanolamine (monoisopropanolamine, MIPA) with increasing levels of DMSO and NMP. A Brookfield LVDV-E digital rotational viscometer with LVDV-E spindle set (Brookfield Engineering Labs, Inc., Middleboro, Mass.) was employed for this work and was calibrated using Cannon […] general purpose, synthetic base oil viscosity calibration standard solution (Cannon Instrument Company, State College, PA). The sampling was conducted at 21° C.

SMILES: CCCCNP(N)(N)=S [NBPT, N-(n-butyl) thiophosphoric triamide]
- NBPT deterioration at elevated temperature ([1]; solution of example 4: 50% PG, 25% DMSO, 25% NBPT): did not have significant deterioration
- NBPT deterioration at elevated temperature ([1]; solution of example 6: 35% PG, 40% DMSO, 25% NBPT): did not have significant deterioration
- NBPT deterioration at elevated temperature ([1]; solution of example 8: 20% PG, 40% DMSO, 40% NBPT): did not have significant deterioration
- NBPT deterioration at elevated temperature ([1]; solution of example 10: 48.5% glycerine, 1.5% methanol, 25% DMSO, 25% NBPT): did not have significant deterioration
- NBPT deterioration at elevated temperature ([1]; solution of example 12: 33.5% glycerine, 1.5% methanol, 25% DMSO, 40% NBPT): did not have significant deterioration

SMILES: CN1CCCC1=O [N-methyl pyrrolidone, reference compound]
- Oral LD-50 [2]: 3,914
- Dermal LD-50 [3]: 8,000
- Inhalation toxicity (MADL) [4]: 3200 µg/day

SMILES: CC(O)CO (stereo not shown) [propylene glycol]
- dynamic viscosity [5]: 48.8 centipoise

SMILES: C[S+](C)[O-] [Dimethyl sulfoxide, dimethyl sulfoxide]
- reducing the viscosity of viscous formulations, DMSO vs. NMP [6]: virtually no difference
- Oral LD-50 [2]: 14,500-28,300
- Dermal LD-50 [3]: 40,000
- Inhalation toxicity (MADL) [4]: None established
